Source: ChEMBL document CHEMBL1671799, “Modelling topoisomerase I inhibition by minor groove binders” (Bioorg Med Chem, 2011)
The source made the active and inactive calls. The rule behind the calls is not given here.

species: Bos taurus; assay: Inhibition of calf thymus topoisomerase 1 relative to Hoechst 33342

Row | Compound | Ratio | inhibition
1 | CCCc1nc2ccc(-c3nc4cc(-c5ccccc5)ccc4[nH]3)cc2[nH]1 | 1 | 
2 | Fc1ccc2[nH]c(-c3ccc4nc(-c5ccc6nc[nH]c6c5)[nH]c4c3)nc2c1 | 0.05 | 
3 | N#Cc1ccc2[nH]c(-c3ccc4[nH]c(-c5cccc6ccccc56)nc4c3)nc2c1 | 10 | 
4 | N#Cc1ccc2[nH]c(-c3ccc4[nH]c(-c5ccc6ccccc6c5)nc4c3)nc2c1 | 10 | 
5 | Cc1cccc(-c2nc3cc(-c4nc5cc(C(N)=O)ccc5[nH]4)ccc3[nH]2)c1 | 100 | 
6 | c1cc(-c2ccc3[nH]c(-c4ccc5[nH]c(-c6ccc7[nH]cnc7c6)nc5c4)nc3c2)ccn1 | 2 | 
7 | CC(C)c1nc2ccc(-c3nc4cc(-c5ccccc5)ccc4[nH]3)cc2[nH]1 | 1 | 
8 | Clc1nc2ccc(-c3nc4ccc(-c5nc6cc(Br)c(Br)cc6[nH]5)cc4[nH]3)cc2[nH]1 | 1 | 
9 | COc1ccc(-c2nc3ccc(-c4nc5cc(-c6ccccc6)ccc5[nH]4)cc3[nH]2)cc1 | 40 | 
10 | N#Cc1ccc2[nH]c(-c3ccc4[nH]c(-c5ccccc5)nc4c3)nc2c1 | > 100 | 
11 | COc1ccc(-c2nc3cc(Br)ccc3[nH]2)cc1 | > 300000 | 
12 | Cc1ccc(-c2nc3cc(-c4nc5cc(C#N)ccc5[nH]4)ccc3[nH]2)cc1 | 1 | 
13 | c1ccc(-c2ccc3[nH]c(-c4ccc5[nH]c(-c6ccc7[nH]nnc7c6)nc5c4)nc3c2)cc1 | 1 | 
14 | c1ccc2[nH]c(-c3ccc4[nH]c(-c5ccc6[nH]cnc6c5)nc4c3)nc2c1 | 1.1 | 
15 | COc1ccc(-c2nc3cc(-c4nc5cc(N(C)C)ccc5[nH]4)ccc3[nH]2)cc1 | 1000 | 
16 | Oc1nc2ccc(-c3nc4cc(-c5nc6cc(-c7ccccc7)ccc6[nH]5)ccc4[nH]3)cc2nc1O | 1 | 
17 | Cc1ccc(-c2nc3cc(-c4nc5cc(C(N)=O)ccc5[nH]4)ccc3[nH]2)cc1 | 10 | 
18 | c1ccc(-c2cc3nc(-c4ccc5nc(-c6ccc7nc[nH]c7c6)[nH]c5c4)[nH]c3cc2-c2ccccc2)cc1 | 1 | 
19 | CCCc1ccc2[nH]c(-c3ccc4[nH]c(-c5ccc6[nH]cnc6c5)nc4c3)nc2c1 | 0.5 | 
20 | COc1ccc(-c2nc3cc([N+](=O)[O-])ccc3o2)cc1 |  | inactive
21 | Oc1ccc2[nH]c(-c3ccc4nc(-c5ccc6nc[nH]c6c5)[nH]c4c3)nc2c1 | 0.5 | 
22 | COc1ccc(-c2nc3cc(CN)ccc3[nH]2)cc1 | > 300000 | 
23 | CCc1nc2ccc(-c3nc4cc(-c5ccccc5)ccc4[nH]3)cc2[nH]1 | 2 | 

Row | Compound | Ratio | inhibition
24 | c1ccc(-c2ccc3[nH]c(-c4ccc5nc[nH]c5c4)nc3c2)cc1 | 2 | 
25 | COc1ccc(-c2nc3cc(C=O)ccc3[nH]2)cc1 | 300 | 
26 | Oc1nc2ccc(-c3nc4ccc(-c5nc6ccc(Br)cc6[nH]5)cc4[nH]3)cc2[nH]1 | 1 | 
27 | COc1ccc(-c2nc3cc(C(N)=O)ccc3[nH]2)cc1 | 3000 | 
28 | c1ccc2cc3[nH]c(-c4ccc5nc[nH]c5c4)nc3cc2c1 | 2000 | 
29 | COc1ccc(-c2nc3ccccc3[nH]2)cc1 | > 300000 | 
30 | c1ccc(-c2ccc3[nH]c(-c4ccc5nc(-c6ccccc6)[nH]c5c4)nc3c2)cc1 | 40 | 
31 | c1ccc(-c2ccc3[nH]c(-c4ccc5[nH]c(-c6ccc7[nH]cnc7c6)nc5c4)nc3c2)nc1 | 3.3 | 
32 | COc1ccc2[nH]c(-c3ccc4nc(-c5ccc6nc[nH]c6c5)[nH]c4c3)nc2c1 | 0.05 | 
33 | CN1CCN(c2ccc3[nH]c(-c4ccc5[nH]c(-c6ccccc6)nc5c4)nc3c2)CC1 | 1 | 
34 | c1ccc(-c2ccc3[nH]c(-c4ccc5[nH]c(-c6ccc7cc[nH]c7c6)nc5c4)nc3c2)cc1 | 5 | 
35 | c1ccc(-c2cccc3[nH]c(-c4ccc5nc[nH]c5c4)nc23)cc1 | 10 | 
36 | COc1ccc(-c2nc3cc(-c4nc5cc([N+](=O)[O-])ccc5[nH]4)ccc3[nH]2)cc1 | 1000 | 
37 | Cc1nc2ccc(-c3nc4cc(-c5ccccc5)ccc4[nH]3)cc2[nH]1 | 4 | 
38 | Brc1ccc2[nH]c(-c3ccc4nc(-c5ccc6nc[nH]c6c5)[nH]c4c3)nc2c1 | 1 | 
39 | Brc1cc2nc(-c3ccc4nc(-c5ccc6nc[nH]c6c5)[nH]c4c3)[nH]c2cc1Br | 1 | 
40 | COc1ccc(-c2nc3c([N+](=O)[O-])cccc3[nH]2)cc1 | > 300000 | 
41 | COc1ccc(-c2nc3cc(-c4nc5cc(OC6CCN(C)CC6)ccc5[nH]4)ccc3[nH]2)cc1 | 2 | 
42 | c1ccc(-c2ccc3[nH]c(-c4ccc5[nH]c(-c6ccc7nccnc7c6)nc5c4)nc3c2)cc1 | > 100 | 
43 | NC(=O)c1ccc2[nH]c(-c3ccc4[nH]c(-c5ccc6ccccc6c5)nc4c3)nc2c1 | 100 | 
44 | Cc1cccc(-c2nc3cc(-c4nc5cc(C#N)ccc5[nH]4)ccc3[nH]2)c1 | 100 | 
45 | COc1ccc(-c2nc3cc(-c4nc5cc(-c6nc7cc(C#N)ccc7[nH]6)ccc5[nH]4)ccc3[nH]2)cc1 | 1000 | 
46 | COc1ccc(-c2nc3ccc([N+](=O)[O-])cc3o2)cc1 |  | inactive

Row | Compound | Ratio | inhibition
47 | CN1CCN(c2ccc3[nH]c(-c4ccc5[nH]c(-c6ccc7ccccc7c6)nc5c4)nc3c2)CC1 | 10 | 
48 | COc1ccc(-c2nc3ccc([N+](=O)[O-])cc3s2)cc1 |  | inactive
49 | COc1ccc(-c2nc3cc([N+](=O)[O-])ccc3s2)cc1 |  | inactive
50 | c1ccc2c(c1)ccc1[nH]c(-c3ccc4nc[nH]c4c3)nc12 | 2 | 
51 | COc1cc2nc(-c3ccc4nc(-c5ccc6nc[nH]c6c5)[nH]c4c3)[nH]c2cc1-c1ccccc1 | 0.5 | 
52 | c1ccc2c(-c3ccc4[nH]c(-c5ccc6[nH]c(-c7ccc8[nH]cnc8c7)nc6c5)nc4c3)cccc2c1 | 10 | 
53 | Cc1ccccc1-c1nc2cc(-c3nc4cc(N5CCN(C)CC5)ccc4[nH]3)ccc2[nH]1 | 10 | 
54 | COc1ccc(-c2nc3cc(-c4nc5cc(N)ccc5[nH]4)ccc3[nH]2)cc1 | 100 | 
55 | Clc1ccc2[nH]c(-c3ccc4nc(-c5ccc6nc[nH]c6c5)[nH]c4c3)nc2c1 | 1 | 
56 | CCCc1nc2ccc(-c3nc4ccc(-c5nc6ccc(Br)cc6[nH]5)cc4[nH]3)cc2[nH]1 | 1 | 
57 | c1ccc(-c2ccc3[nH]c(-c4ccc5[nH]c(-c6ccc7[nH]ccc7c6)nc5c4)nc3c2)cc1 | 50 | 
58 | COc1ccc(-c2nc3cc(-c4nc5cc(N6CCN(C)CC6)ccc5[nH]4)ccc3[nH]2)cc1 | 1 | 
59 | COc1ccc(-c2nc3cc(CO)ccc3[nH]2)cc1 | 30000 | 
60 | COc1ccc(-c2nc3cc(-c4nc5cc(C#N)ccc5[nH]4)ccc3[nH]2)cc1 | 3.3 | 
61 | c1ccc2cc(-c3ccc4[nH]c(-c5ccc6[nH]c(-c7ccc8[nH]cnc8c7)nc6c5)nc4c3)ccc2c1 | 10 | 
62 | COc1ccc(-c2nc3cc(-c4nc5cc(CN(C)C)ccc5[nH]4)ccc3[nH]2)cc1 | 2.5 | 
63 | FC(F)(F)c1nc2ccc(-c3nc4ccc(-c5nc6cc(Br)c(Br)cc6[nH]5)cc4[nH]3)cc2[nH]1 | 1 | 
64 | O=[N+]([O-])c1ccc2[nH]c(-c3ccc4nc(-c5ccc6nc[nH]c6c5)[nH]c4c3)nc2c1 | 0.5 | 
65 | COc1ccc(-c2nc3cc([N+](=O)[O-])ccc3[nH]2)cc1 | 300 | 
66 | c1cncc(-c2ccc3[nH]c(-c4ccc5[nH]c(-c6ccc7[nH]cnc7c6)nc5c4)nc3c2)c1 | 2 | 
67 | Clc1ccc(-c2ccc3[nH]c(-c4ccc5nc[nH]c5c4)nc3c2)cc1 | 4 | 
68 | Nc1ccc2[nH]c(-c3ccc4nc(-c5ccc6nc[nH]c6c5)[nH]c4c3)nc2c1 | 1 | 
69 | CN1CCN(c2ccc3[nH]c(-c4ccc5[nH]c(-c6cccc7ccccc67)nc5c4)nc3c2)CC1 | 20 | 

Row | Compound | Ratio | inhibition
70 | COc1ccc(-c2ccc3[nH]c(-c4ccc5nc[nH]c5c4)nc3c2)cc1 | 1 | 
71 | Cc1ccccc1-c1nc2cc(-c3nc4cc(C(N)=O)ccc4[nH]3)ccc2[nH]1 | 100 | 
72 | COc1ccc(-c2cc3cc([N+](=O)[O-])ccc3[nH]2)cc1 |  | inactive
73 | N#Cc1ccc2[nH]c(-c3ccc4[nH]c(-c5ccc6[nH]cnc6c5)nc4c3)nc2c1 | 0.1 | 
74 | c1ccc2cc(-c3ccc4[nH]c(-c5ccc6nc[nH]c6c5)nc4c3)ccc2c1 | 2 | 
75 | N#Cc1ccc2[nH]c(-c3ccc4[nH]cnc4c3)nc2c1 | 1000 | 
76 | NC(=O)c1ccc2[nH]c(-c3ccc4[nH]c(-c5cccc6ccccc56)nc4c3)nc2c1 | 20 | 
77 | c1nc2ccc(-c3nc4ccc(-c5nc6cc(N7CCCCC7)ccc6[nH]5)cc4[nH]3)cc2[nH]1 | 0.5 | 
78 | c1ccc(-c2ccc3[nH]c(-c4ccc5[nH]c(-c6ccc7[nH]cnc7c6)nc5c4)nc3c2)cc1 | 1 | 
79 | COc1ccc(-c2nc3cc(C(=O)O)ccc3[nH]2)cc1 | > 300000 | 
80 | COc1ccc(-c2nc3cc(C#N)ccc3[nH]2)cc1 | > 300000 | 
81 | Cc1ccccc1-c1nc2cc(-c3nc4cc(C#N)ccc4[nH]3)ccc2[nH]1 | > 500 | 
82 | Cc1ccc(-c2nc3cc(-c4nc5cc(N6CCN(C)CC6)ccc5[nH]4)ccc3[nH]2)cc1 | 1 | 
83 | c1ccc2c(-c3ccc4[nH]c(-c5ccc6nc[nH]c6c5)nc4c3)cccc2c1 | 4 | 
84 | Cc1cccc(-c2nc3cc(-c4nc5cc(N6CCN(C)CC6)ccc5[nH]4)ccc3[nH]2)c1 | 1 | 
85 | COc1ccc(-c2nc3cc(-c4nc5cc(CCN(C)C)ccc5[nH]4)ccc3[nH]2)cc1 | 5 | 
86 | NC(=O)c1ccc2[nH]c(-c3ccc4[nH]c(-c5ccccc5)nc4c3)nc2c1 | 10 | 
87 | COc1ccc(-c2nc3cc(-c4nc5cc(CCCN(C)C)ccc5[nH]4)ccc3[nH]2)cc1 | 2 | 
88 | COc1ccc(-c2cc3ccc([N+](=O)[O-])cc3[nH]2)cc1 |  | inactive
89 | FC(F)(F)c1nc2ccc(-c3nc4ccc(-c5nc6ccc(-c7ccc(Cl)cc7)cc6[nH]5)cc4[nH]3)cc2[nH]1 | 1 | 
90 | COc1cc2nc(-c3ccc4nc(-c5ccc6nc[nH]c6c5)[nH]c4c3)[nH]c2cc1Br | 2 | 
